Experimental data as given in the Kinase Knowledgebase extract (Sharma et al. 2016).

target: EGFR (UniProt P00533)
Sequence (P00533 whole entry, looked up): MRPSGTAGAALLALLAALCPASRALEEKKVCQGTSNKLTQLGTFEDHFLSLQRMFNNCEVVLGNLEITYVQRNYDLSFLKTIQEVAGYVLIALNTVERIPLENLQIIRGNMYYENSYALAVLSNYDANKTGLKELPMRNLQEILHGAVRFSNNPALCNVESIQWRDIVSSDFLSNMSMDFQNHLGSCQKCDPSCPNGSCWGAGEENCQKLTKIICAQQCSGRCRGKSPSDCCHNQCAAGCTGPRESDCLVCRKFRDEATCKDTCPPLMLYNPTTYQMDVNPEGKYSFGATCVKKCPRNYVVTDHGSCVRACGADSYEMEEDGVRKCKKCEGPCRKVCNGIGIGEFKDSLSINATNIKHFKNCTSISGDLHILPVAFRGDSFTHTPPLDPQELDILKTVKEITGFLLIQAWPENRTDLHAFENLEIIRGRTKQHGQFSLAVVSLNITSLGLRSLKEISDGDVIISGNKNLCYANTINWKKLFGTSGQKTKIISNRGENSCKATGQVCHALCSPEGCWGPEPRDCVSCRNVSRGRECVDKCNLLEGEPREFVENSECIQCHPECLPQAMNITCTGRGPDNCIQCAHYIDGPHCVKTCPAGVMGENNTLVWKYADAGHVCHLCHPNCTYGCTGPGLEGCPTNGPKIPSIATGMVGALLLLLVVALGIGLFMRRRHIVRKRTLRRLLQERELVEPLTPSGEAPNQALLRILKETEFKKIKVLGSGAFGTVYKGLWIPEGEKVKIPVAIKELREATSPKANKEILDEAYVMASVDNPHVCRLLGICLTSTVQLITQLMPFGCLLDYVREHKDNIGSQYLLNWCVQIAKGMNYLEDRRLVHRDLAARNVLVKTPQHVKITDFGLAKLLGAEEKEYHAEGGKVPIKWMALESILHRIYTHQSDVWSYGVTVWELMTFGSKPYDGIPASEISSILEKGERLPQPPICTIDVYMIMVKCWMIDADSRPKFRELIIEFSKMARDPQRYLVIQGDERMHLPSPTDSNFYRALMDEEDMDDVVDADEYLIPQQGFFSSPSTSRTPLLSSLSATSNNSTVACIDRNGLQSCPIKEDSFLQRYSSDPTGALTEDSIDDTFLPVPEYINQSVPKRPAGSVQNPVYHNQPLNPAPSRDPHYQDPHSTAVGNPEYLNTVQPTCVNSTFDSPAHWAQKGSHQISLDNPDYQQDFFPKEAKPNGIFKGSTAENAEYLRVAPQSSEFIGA

| SMILES | IC50 [nM] |
| --- | --- |
| COc1cc2ncnc(NC3CCCCC3)c2cc1OC | < 1000 |
| COc1cc2ncnc(Cc3ccccc3)c2cc1OC | ≤ 500 |
| COc1cc2ncnc(Nc3cccc(C#N)c3)c2cc1OC | 10000 |
| COc1ccc2ncnc(Nc3cc(OC)c(OC)c(OC)c3)c2c1 | 5000 |
| COc1cc2ncnc(Nc3ccc(OC(C)C)cc3)c2cc1OC | 5000 |
| COc1cccc(Sc2ncnc3cc(OC)c(OC)cc23)c1 | 2000 |
| COc1cc2ncnc(Nc3cc(Cl)c(Cl)c(Cl)c3)c2cc1OC | 1000 |

Second part, the compound after the results:

| IC50 [nM] | SMILES |
| --- | --- |
| 10 | COc1cc2ncnc(Nc3cccc4ccccc34)c2cc1OC |
| 50 to 100 | Clc1cccc(Nc2ncnc3ccccc23)c1 |
| 100 | COc1cc2ncnc(Sc3cccc(Cl)c3)c2cc1OC |
| 200 | COc1cc2ncnc(N(C)c3ccccc3)c2cc1OC |
| 50 | COc1cccc(Nc2ncnc3cc(OC)c(OC)cc23)c1 |
| 50 | COc1cc2ncnc(Nc3ccc4ccccc4c3)c2cc1OC |
| 50 | COc1cc2ncnc(Nc3ccccc3Cl)c2cc1OC |
